Assays:
Settings in all cases: 48 h
P12-Ichikawa [1] = experiment: AUC of viability dose-response curve (% viability x log10 dose units); higher = less sensitive
How it was run: (§1)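 Library compounds in DMSO were applied for 48 h at 37°C at 11 threefold doses (47 μM to 0.79 nM) to medium-adapted leukemia cells in 1536-well plates holding 500 or 1000 cells/well. Luminescence from CellTiter-Glo One was normalised plate by plate against DMSO and cell-free wells. Area under the curve came from trapezoidal integration of a log-logistic fit, after scaling curves that rose above full viability and discarding those that failed quality control. The fit had four parameters and used log10 doses.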

SEM cells [2] = experiment: as above
How it was run: as §1

NOMO1 [3] = experiment: as above
How it was run: as §1

P12-Ichikawa [4] = experiment: cell viability relative to DMSO control; higher = less cytotoxic
How it was run: (§2)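 NOMO1 or SEM (500 cells/well) or P12-Ichikawa (1000 cells/well) leukemia cells were adapted for at least four passages in each medium. They were seeded in 1536-well plates (5 μl) and pin-dosed with library compounds in DMSO over an 11-point threefold series, 47 μM to 0.79 nM. CellTiter-Glo One luminescence was read after 48 h at 37°C. Viability is the per-plate percentage relative to DMSO wells, with cell-free wells as background.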

SEM cells [5] = experiment: as above
How it was run: as §2

NOMO1 [6] = experiment: as above
How it was run: as §2

C[C@]12CC[C@@H]3c4ccc(O)cc4CC[C@H]3[C@@H]1CC[C@@H]2O
AUC of viability dose-response curve
Settings	NOMO1 [3]	P12-Ichikawa [1]	SEM cells [2]
HPLM + 10% dialyzed FBS	435	446	441
RPMI 5 mM glucose + 10% FBS	453	455	434
RPMI 5 mM glucose + 10% dialyzed FBS	450	440	431

cell viability [%]
Settings	NOMO1 [6]	P12-Ichikawa [4]	SEM cells [5]
HPLM + 10% dialyzed FBS, 0.000781 µM	124	116	109
HPLM + 10% dialyzed FBS, 0.00234 µM	124	111	110
HPLM + 10% dialyzed FBS, 0.00702 µM	124	113	121
HPLM + 10% dialyzed FBS, 0.0211 µM	112	106	115
HPLM + 10% dialyzed FBS, 0.0632 µM	117	112	98.9
HPLM + 10% dialyzed FBS, 0.19 µM	115	116	119
HPLM + 10% dialyzed FBS, 0.569 µM	117	105	113
HPLM + 10% dialyzed FBS, 1.71 µM	116	102	97.4
HPLM + 10% dialyzed FBS, 5.12 µM	112	100	95.7
HPLM + 10% dialyzed FBS, 15.4 µM	56.3	88.9	85.2
HPLM + 10% dialyzed FBS, 46.1 µM	46.9	27.1	23.4
RPMI 5 mM glucose + 10% FBS, 0.000781 µM	–	118	124
RPMI 5 mM glucose + 10% FBS, 0.00234 µM	–	112	124
RPMI 5 mM glucose + 10% FBS, 0.00702 µM	–	115	129
RPMI 5 mM glucose + 10% FBS, 0.0211 µM	–	115	142
RPMI 5 mM glucose + 10% FBS, 0.0632 µM	–	105	125
RPMI 5 mM glucose + 10% FBS, 0.19 µM	–	111	123
RPMI 5 mM glucose + 10% FBS, 0.569 µM	–	112	118
RPMI 5 mM glucose + 10% FBS, 1.71 µM	–	108	114
RPMI 5 mM glucose + 10% FBS, 5.12 µM	–	107	113
RPMI 5 mM glucose + 10% FBS, 15.4 µM	–	105	84
RPMI 5 mM glucose + 10% FBS, 46.1 µM	–	20.9	21.1
RPMI 5 mM glucose + 10% dialyzed FBS, 0.000781 µM	107	108	127
RPMI 5 mM glucose + 10% dialyzed FBS, 0.00234 µM	116	111	118
RPMI 5 mM glucose + 10% dialyzed FBS, 0.00702 µM	105	109	124
RPMI 5 mM glucose + 10% dialyzed FBS, 0.0211 µM	133	101	144
RPMI 5 mM glucose + 10% dialyzed FBS, 0.0632 µM	128	103	116
RPMI 5 mM glucose + 10% dialyzed FBS, 0.19 µM	116	102	121
RPMI 5 mM glucose + 10% dialyzed FBS, 0.569 µM	104	102	114
RPMI 5 mM glucose + 10% dialyzed FBS, 1.71 µM	103	94.3	115
RPMI 5 mM glucose + 10% dialyzed FBS, 5.12 µM	104	94.1	105
RPMI 5 mM glucose + 10% dialyzed FBS, 15.4 µM	91.8	75.5	82
RPMI 5 mM glucose + 10% dialyzed FBS, 46.1 µM	35.6	28.6	16.5

C[C@H]1C[C@H]2[C@@H]3CCC4=CC(=O)C=C[C@]4(C)[C@H]3C(=O)C[C@]2(C)[C@@]1(O)C(=O)CO
AUC of viability dose-response curve
Settings	NOMO1 [3]	P12-Ichikawa [1]	SEM cells [2]
HPLM + 10% dialyzed FBS	442	443	390
RPMI 5 mM glucose + 10% FBS	407	454	366
RPMI 5 mM glucose + 10% dialyzed FBS	394	402	401

cell viability [%]
Settings	NOMO1 [6]	P12-Ichikawa [4]	SEM cells [5]
HPLM + 10% dialyzed FBS, 0.000781 µM	89.9	91.4	77
HPLM + 10% dialyzed FBS, 0.00234 µM	80.3	96.5	81.5
HPLM + 10% dialyzed FBS, 0.00702 µM	81.2	93.1	77.8
HPLM + 10% dialyzed FBS, 0.0211 µM	103	95.6	88.9
HPLM + 10% dialyzed FBS, 0.0632 µM	86.3	88	70.6
HPLM + 10% dialyzed FBS, 0.19 µM	109	92.7	99.8
HPLM + 10% dialyzed FBS, 0.569 µM	98.9	87.6	96.5
HPLM + 10% dialyzed FBS, 1.71 µM	96	94.8	92.7
HPLM + 10% dialyzed FBS, 5.12 µM	86.8	88.3	88.7
HPLM + 10% dialyzed FBS, 15.4 µM	99.8	101	81.9
HPLM + 10% dialyzed FBS, 46.1 µM	83	93	9.17
RPMI 5 mM glucose + 10% FBS, 0.000781 µM	82.7	91.3	82.3
RPMI 5 mM glucose + 10% FBS, 0.00234 µM	90.2	98.1	81.3
RPMI 5 mM glucose + 10% FBS, 0.00702 µM	86.9	94	90.3
RPMI 5 mM glucose + 10% FBS, 0.0211 µM	91.6	90.7	78.8
RPMI 5 mM glucose + 10% FBS, 0.0632 µM	80.8	94.7	72.5
RPMI 5 mM glucose + 10% FBS, 0.19 µM	79.9	99.7	87
RPMI 5 mM glucose + 10% FBS, 0.569 µM	81.3	94.9	92.5
RPMI 5 mM glucose + 10% FBS, 1.71 µM	83.8	97.2	91.7
RPMI 5 mM glucose + 10% FBS, 5.12 µM	86.5	100	71.3
RPMI 5 mM glucose + 10% FBS, 15.4 µM	86.3	95.7	58.5
RPMI 5 mM glucose + 10% FBS, 46.1 µM	92.2	85.3	7.21
RPMI 5 mM glucose + 10% dialyzed FBS, 0.000781 µM	83	83.7	93.2
RPMI 5 mM glucose + 10% dialyzed FBS, 0.00234 µM	78.4	91.7	85.2
RPMI 5 mM glucose + 10% dialyzed FBS, 0.00702 µM	77.9	80.1	83.4
RPMI 5 mM glucose + 10% dialyzed FBS, 0.0211 µM	56.5	89.7	91.1
RPMI 5 mM glucose + 10% dialyzed FBS, 0.0632 µM	78.8	84	77.5
RPMI 5 mM glucose + 10% dialyzed FBS, 0.19 µM	82.4	85.6	101
RPMI 5 mM glucose + 10% dialyzed FBS, 0.569 µM	99.8	82.7	93.6
RPMI 5 mM glucose + 10% dialyzed FBS, 1.71 µM	85.1	83.7	97.6
RPMI 5 mM glucose + 10% dialyzed FBS, 5.12 µM	94.4	82.2	85.4
RPMI 5 mM glucose + 10% dialyzed FBS, 15.4 µM	78	85.6	74.4
RPMI 5 mM glucose + 10% dialyzed FBS, 46.1 µM	93.2	70.5	7.99

N#CC1(c2ccc(NC(=O)c3cccnc3NCc3ccncc3)cc2)CCCC1
AUC of viability dose-response curve
Settings	NOMO1 [3]	P12-Ichikawa [1]	SEM cells [2]
HPLM + 10% dialyzed FBS	442	437	442
RPMI 5 mM glucose + 10% FBS	475	461	431
RPMI 5 mM glucose + 10% dialyzed FBS	463	435	412

cell viability [%]
Settings	NOMO1 [6]	P12-Ichikawa [4]	SEM cells [5]
HPLM + 10% dialyzed FBS, 0.000781 µM	112	120	120
HPLM + 10% dialyzed FBS, 0.00234 µM	110	123	123
HPLM + 10% dialyzed FBS, 0.00702 µM	110	113	123
HPLM + 10% dialyzed FBS, 0.0211 µM	121	116	118
HPLM + 10% dialyzed FBS, 0.0632 µM	114	116	116
HPLM + 10% dialyzed FBS, 0.19 µM	98.4	110	102
HPLM + 10% dialyzed FBS, 0.569 µM	108	108	124
HPLM + 10% dialyzed FBS, 1.71 µM	95.2	104	113
HPLM + 10% dialyzed FBS, 5.12 µM	103	106	91
HPLM + 10% dialyzed FBS, 15.4 µM	91.4	77.8	80.7
HPLM + 10% dialyzed FBS, 46.1 µM	93.1	102	81.4
RPMI 5 mM glucose + 10% FBS, 0.000781 µM	99.5	119	–
RPMI 5 mM glucose + 10% FBS, 0.00234 µM	106	108	–
RPMI 5 mM glucose + 10% FBS, 0.00702 µM	99.2	123	–
RPMI 5 mM glucose + 10% FBS, 0.0211 µM	102	107	–
RPMI 5 mM glucose + 10% FBS, 0.0632 µM	113	122	–
RPMI 5 mM glucose + 10% FBS, 0.19 µM	106	111	–
RPMI 5 mM glucose + 10% FBS, 0.569 µM	97.8	113	–
RPMI 5 mM glucose + 10% FBS, 1.71 µM	104	109	–
RPMI 5 mM glucose + 10% FBS, 5.12 µM	103	102	–
RPMI 5 mM glucose + 10% FBS, 15.4 µM	105	110	–
RPMI 5 mM glucose + 10% FBS, 46.1 µM	98.1	98.9	–
RPMI 5 mM glucose + 10% dialyzed FBS, 0.000781 µM	110	118	–
RPMI 5 mM glucose + 10% dialyzed FBS, 0.00234 µM	105	122	–
RPMI 5 mM glucose + 10% dialyzed FBS, 0.00702 µM	116	115	–
RPMI 5 mM glucose + 10% dialyzed FBS, 0.0211 µM	115	109	–
RPMI 5 mM glucose + 10% dialyzed FBS, 0.0632 µM	120	113	–
RPMI 5 mM glucose + 10% dialyzed FBS, 0.19 µM	109	114	–
RPMI 5 mM glucose + 10% dialyzed FBS, 0.569 µM	104	103	–
RPMI 5 mM glucose + 10% dialyzed FBS, 1.71 µM	106	113	–
RPMI 5 mM glucose + 10% dialyzed FBS, 5.12 µM	113	103	–
RPMI 5 mM glucose + 10% dialyzed FBS, 15.4 µM	104	96.3	–
RPMI 5 mM glucose + 10% dialyzed FBS, 46.1 µM	99.8	90.8	–
